System: Human umbilical vein endothelial cells
Test: HUVEC culture 72 hours, fast green staining, image analysis count of NSD and MCAD cells
Details: for number of cells per field exhibiting MCAD: vehicle alone approximately 10; for number of cells showing non-specific cell death (NSD): vehicle alone approximately 125
Method: After 72 hours, the cells were stained with fast green and sedimented on microscope slides with a Cytospin™ centrifuge. Endothelial cells with non-specific death (NSD) stain pale blue green and endothelial cells with specific, massive-calcium accumulation death (MCAD) stain densely refractile hyperchromatic blue-black. The number of each type of cell was quantified using image analysis software.

Molecule | number of cells per field exhibiting MCAD [cells per field] | number of cells showing non-specific cell death (NSD)
COc1cccc2c1C(=O)c1c(O)c3c(c(O)c1C2=O)C[C@@](O)(C(=O)CO)C[C@@H]3O[C@H]1C[C@H](N)[C@H](O)[C@H](C)O1 [doxorubicin] | 4 | 160 cells per field
bevacizumab [Avastin ®] | 35 | about 100 cells per field
